From US4705799A, “Aminomethyl oxooxazolidinyl benzenes useful as antibacterial agents” (E. I. Du Pont de Nemours and Company, priority 1985, dated 1987)
Converted amounts (≈) assume the structure as drawn.

Key:
Escherichia coli [1] = assay: In vivo efficacy of orally administered compounds in mouse intraperitoneal infections; settings: 168 h; mouse i.p. Escherichia coli infection; oral; dosed at infection and 4 h post-infection; 7 days; read-out: ED50 (50 percent effective dose)
Protocol: (§1) Determinations of in vivo efficacy are performed by inoculating mice intraperitoneally with cultures of the infecting organism diluted to produce 90-100% mortality in control animals within twenty-four hours. The diluents used were trypticase soy broth for E. coli and 5% aqueous hog gastric mucin for Staphylococcus aureus infections. The compounds are dissolved or suspended in 0.25% aqueous Methocel® (Methocel®: Hydroxypropyl Methylcellulose E15 Premium, Dow Chemical Company) for oral administration or sterile distilled water containing 5% dimethylsulfoxide (Fisher Scientific Company, Fairlawn, N.J.) for subcutaneous administration. The mice are dosed at the time of infection and again at four hours post-infection. Mortality is recorded daily until test termination seven days post infection and the 50 percent effective dose, ED50, is calculated by the Reed-Muench method (Reed, L. G. and Muench, H., "A simple method of estimating fifty percent end points," American Journal of Hygiene, 27, 493-497 (1938).

Staphylococcus aureus [2] = assay: as above; settings: Staphylococcus aureus, po, 168 h, mouse i.p. Staphylococcus aureus infection; oral; dosed at infection and 4 h post-infection; 7 days; read-out: ED50 (50 percent effective dose)
Protocol: as §1

Escherichia coli [3] = assay: In vitro broth dilution minimal inhibitory concentration (standard microdilution method); assay type: cell-based; settings: Escherichia coli; Mueller-Hinton broth; 24-hour; read-out: Microdilution Broth MIC
[4] = test system: Staphylococcus epidermidis; assay: as above; assay type: cell-based; settings: 24 h, Mueller-Hinton broth, 24-hour, read-out: Microdilution Broth MIC
Escherichia coli [5] = assay: In vivo efficacy of compounds administered subcutaneously in mouse intraperitoneal infections; settings: sc, 168 h; mouse i.p. Escherichia coli infection; subcutaneous; dosed at infection and 4 h post-infection; 7 days; read-out: ED50 (50 percent effective dose)
Protocol: as §1

Staphylococcus aureus [6] = assay: as above; settings: sc, 168 h; mouse i.p. Staphylococcus aureus infection; subcutaneous; dosed at infection and 4 h post-infection; 7 days; read-out: ED50 (50 percent effective dose)
Protocol: as §1

Row | Compound | ED50 (Escherichia coli [1]) [mg/kg] | ED50 (Staphylococcus aureus [2]) [mg/kg] | MIC (Escherichia coli [3]) [µg/mL] | MIC [4] [µg/mL] | ED50 (Escherichia coli [5]) [mg/kg] | ED50 (Staphylococcus aureus [6]) [mg/kg]
1 | CC(=O)NCC1CN(c2ccc(C(=O)CCl)cc2)C(=O)O1 (stereo not drawn) [Example 135, l-N-[3-[4-(chloroacetyl)phenyl]-2-oxo-5-oxazolidinylmethyl]acetamide] | 100 | < 4.4 | 100 (≈ 322 µM) | 0.15 (≈ 0.483 µM) | 100 | < 4.4
2 | CC(=O)NCC1CN(c2ccc(C(C)=NO)cc2)C(=O)O1 (single isomer, unassigned) [Example 159, (l)-N-[3-(4-Acetylphenyl)-2-oxooxazolidin-5-ylmethyl]acetamide Oxime] |  | 2.6 | > 128 | 4 (≈ 13.7 µM) | 71.9 | 1.1
3 | COC(=O)NCC1CN(c2ccc(S(=O)(=O)N=[N+]=[N-])cc2)C(=O)O1 (centres unmarked) [Example 117] | > 120 | 16.1 | > 200 | 200 (≈ 563 µM) | > 120 | 7.2
4 | CC(C)(C)C(=O)NCC1CN(c2ccc(S(C)(=O)=O)cc2)C(=O)O1 (centres unmarked) [Example 30] |  | > 120 | > 200 | 200 (≈ 564 µM) | > 120 | 57.4
5 | CC(=O)NCC1CN(c2ccc(C[S+](C)[O-])cc2)C(=O)O1 (single isomer, unassigned) [Example 164, (l)-N-[3-[4-(Methylsulfinylmethyl)phenyl]-2-oxo-5-oxazolidinylmethyl]acetamide] |  | 14 | > 128 | 16 (≈ 51.6 µM) | > 120 | 9.4
6 | CSCc1ccc(N2CC(CNC(C)=O)OC2=O)cc1 (single isomer, unassigned) [Example 163, (l)-N-[3-[4-(Methylthiomethyl)phenyl]-2-oxo-5-oxazolidinylmethyl]acetamide] |  | 5.4 | > 128 | 2 (≈ 6.79 µM) | 33.3 | 3.2
7 | COC(=O)NCC1CN(c2ccc(SC)cc2)C(=O)O1 (single isomer, unassigned) [Example 32, (l)-N-[3-[4-(methylthio)phenyl]-2-oxooxazolidin-5-ylmethyl]carbamic acid, methyl ester] | 70.9 | 3.5 | > 200 | 12.5 (≈ 42.2 µM) |  | < 4.4
8 | CC(=O)NCC1CN(c2ccc(S(=O)(=O)N=[N+]=[N-])cc2)C(=O)O1 (single isomer, unassigned) [Example 114, (l)-N-[3-(4-Azidosulfonylphenyl)-2-oxooxazolidin-5-ylmethyl]acetamide] | 10.5 | 15.3 | 200 (≈ 589 µM) | 200 (≈ 589 µM) | 12.5 | 
9 | CC(=O)NCC1CN(c2ccccc2[N+](=O)[O-])C(=O)O1 (single isomer, unassigned) [Example 148, (l)-N-[3-(2-Nitrophenyl)-2-oxooxazolidin-5-ylmethyl]acetamide] | > 120 | 21 | > 200 | 200 (≈ 716 µM) |  | 21.5
10 | COCC(=O)NCC1CN(c2ccc(S(C)(=O)=O)cc2)C(=O)O1 (centres unmarked) [Example 57] | 39 | 10.8 | 100 (≈ 292 µM) | 12.5 (≈ 36.5 µM) | 12.9 | 
11 | CC(=O)NCC1CN(c2ccc(C(=O)C[S+](C)[O-])cc2)C(=O)O1 (single isomer, unassigned) [Example 165, (l)-N-[3-[4-(Methylsulfinyl)acetylphenyl]-2-oxo-5-oxazolidinylmethyl]acetamide dihydrate] |  | 16.4 | > 200 | 12.5 | > 120 | 8.4
12 | C#Cc1ccc(N2CC(CNC(C)=O)OC2=O)cc1 (single isomer, unassigned) [Example 182, (l)-N-[3-(4-Ethynylphenyl)-2-oxo-5-oxazolidinylmethyl]acetamide] |  | 16 | > 128 | 16 (≈ 61.9 µM) | > 120 | 7
13 | CC(=O)NCC1CN(c2ccc(I)cc2)C(=O)O1 (single isomer, unassigned) [Example 145, (l)-N-[3-(4-Iodophenyl)-2-oxo-5-oxazolidinylmethyl]acetamide] |  | 50 | > 200 | 12.5 (≈ 34.7 µM) | > 120 | 12.2
14 | CS(=O)(=O)c1ccc(N2CC(CNC(=O)C(Cl)Cl)OC2=O)cc1 (single isomer, unassigned) [Example 22, (l)-2,2-Dichloro-N-[3-[4-(methylsulfonyl)phenyl]-2-oxooxazolidin-5-ylmethyl]acetamide] | 71.1 | 14.2 | 9.4 (≈ 24.7 µM) | 2.4 (≈ 6.3 µM) | 11.8 | 
15 | CC(=O)c1ccc(N2CC(CNC(=O)CCl)OC2=O)cc1 (centres unmarked) [Example 174] |  | 8.1 | 32 (≈ 103 µM) | 1 (≈ 3.22 µM) | > 120 | 12.2
16 | CSc1ccc(N2CC(CNC(C)=O)OC2=O)cc1 (single isomer, unassigned) [Example 31, (l)-N-[3-[4-(methylthio)phenyl]-2-oxooxazolidin-5-ylmethyl]acetamide] | 19.6 | 3.5 | > 200 | 3.9 (≈ 13.9 µM) |  | < 4.4
17 | CC(=O)NCC1CN(c2ccc(SC(C)=O)cc2)C(=O)O1 (single isomer, unassigned) [Example 152, (l)-N-[3-[4-(Acetylthio)phenyl]-2-oxooxazolidin-5-ylmethyl]acetamide] | 24.8 | 4.4 | > 200 | > 200 |  | < 2.5
18 | COC(=O)NCC1CN(c2ccc(C(C)=O)cc2)C(=O)O1 (centres unmarked) [Example 179] |  | 2 | 128 (≈ 438 µM) | 4 (≈ 13.7 µM) | 83.1 | 1.7
19 | COC(=O)NCC1CN(c2ccc(S)cc2)C(=O)O1 (single isomer, unassigned) [Example 156, (l)-[3-(4-Mercaptophenyl)-2-oxooxazolidin-5-ylmethyl]carbamic acid, methyl ester] | > 120 | 4.5 | > 200 | > 200 |  | < 4.4
20 | CC(=O)NCC1CN(c2ccc(N)cc2)C(=O)O1 (single isomer, unassigned) [Example 149, (l)-N-[3-(4-Aminophenyl)-2-oxooxazolidin-5-ylmethyl]acetamide] | > 120 | 20.2 | > 200 | 100 (≈ 401 µM) |  | 10.3
21 | CS(=O)(=O)NCC1CN(c2ccc(S(C)(=O)=O)cc2)C(=O)O1 (single isomer, unassigned) [Example 25, (l)-N-[3-[4-(Methylsulfonyl)phenyl]-2-oxooxazolidin-5-ylmethyl]methanesulfonamide] |  | > 360 | > 100 | 100 (≈ 287 µM) | > 100 | 83.6
22 | CCC(=O)NCC1CN(c2ccc(C(C)=O)cc2)C(=O)O1 (single isomer, unassigned) [Example 171, (l)-N-[3-(4-Acetylphenyl)-2-oxo-5-oxazolidinylmethyl]propanamide] |  | 3.3 | > 128 | 4 (≈ 13.8 µM) | 21.6 | 1.6
23 | CC(=O)c1ccc(N2CC(CNC=O)OC2=O)cc1 (centres unmarked) [Example 173] |  | 6.9 | > 128 | 4 (≈ 15.3 µM) | 79 | 4.5
24 | COC(=O)NCC1CN(c2ccc(S(C)(=O)=O)cc2)C(=O)O1 (single isomer, unassigned) [Example 26, (l)-N-[3-[4-(Methylsulfonyl)phenyl]-2-oxooxazolidin-5-ylmethyl]carbamic acid, methyl ester] | 56.2 | 1.7 | 100 (≈ 305 µM) | 6.3 (≈ 19.2 µM) | 40.7 | 
25 | CC(=O)c1ccc(N2CC(CNC(N)=O)OC2=O)cc1 (centres unmarked) [Example 177] |  | 3.7 | > 128 | 4 (≈ 14.4 µM) | 34 | 2.8
26 | CC(=O)c1ccc(N2CC(CNC(=O)CN=[N+]=[N-])OC2=O)cc1 (centres unmarked) [Example 175] |  | 6.6 | 128 (≈ 403 µM) | 4 (≈ 12.6 µM) | 73.5 | 8.2
27 | CC(=O)NCC1CN(c2ccc(C(F)(F)F)cc2)C(=O)O1 (centres unmarked) [Example 41] | > 120 | 5.3 | > 200 | 12.5 (≈ 41.4 µM) |  | 6.1
28 | CCOC(=O)NCC1CN(c2ccc(SC)cc2)C(=O)O1 (centres unmarked) [Example 33] | > 120 | 12.2 | > 200 | 50 (≈ 161 µM) |  | 8.6
29 | CCCc1ccc(N2CC(CNC(C)=O)OC2=O)cc1 (centres unmarked) [Example 136] | 100 |  | > 200 | 6.25 (≈ 22.6 µM) | 100 | < 4.4
30 | C=C(C)c1ccc(N2CC(CNC(C)=O)OC2=O)cc1 (centres unmarked) [Example 97] |  | 4.9 | > 200 | 3.1 (≈ 11.3 µM) | > 120 | 9.5
